One series addresses T1, PARP-1 (Homo sapiens, UniProt P09874).
T1 construct: purchased BPS 80501
Kind of series: PARP1 enzyme activity assay (FP method, fluorescent probe). The series is classed as biochemical. As to the method:
The inhibition of compounds on PARP1/2 enzyme activity was tested using the FP method. The substrate tracer fluorescent probe (from ICE BIOSCIENCE INC.) in the reaction was prepared in a reaction buffer (50 mM Tris (pH 8.0), 10 mM MgCl2, 150 mM NaCl, 0.001% Triox-100). PARP1/2 (BPS, Cat #80501/80502) was added to the reaction buffer, and gently mixed. The final concentrations of PARP1/2 and the fluorescent probe in the reaction mixture were 5/10 nM and 2.5 nM, respectively. Positive reference Olaparib was serially diluted 3-fold, from an initial concentration of 1 µM, to generate 10 concentration points. 0.1 µL of the compound in 100% DMSO was delivered to a 384-well plate (Corning, 4514) by the acoustic liquid conveyor (Echo 655), and the plate was centrifuged at 1000 rpm for 1 minute; 5 µL of PARP enzyme solution was transferred into the 384-well reaction plate, and the plate was centrifuged at 1000 rpm for 1 minute, and incubated at 25°C for 10 min; 5 µL of substrate solution was transferred into the 384-well reaction plate, and the plate was centrifuged at 1000 rpm for 1 minute, and incubated at 25°C for 60 minutes; finally, the mP signal value of FP (ex/em: 485 nm/520 nm) was read using the fluorescence polarisation module of the BMG PHERAstar FSX. Subsequently, the IC50 value was determined by fitting the data to a four-parameter nonlinear regression curve using GraphPad Prism 8 software. The inhibition rate was calculated according to formula 1, where RLUsample represents the readout of the compound well, RLUmax represents the readout of the solvent control well, and RLUmin represents the readout of the control well without the PARP1/2 enzyme. The IC50 value was determined by fitting the data to a four-parameter curve (log(inhibitor) vs. response -- Variable slope) using GraphPad Prism software. Inhibition% = (1−(RLUsample−RLUmin)/(RLUmax−RLUmin)) × 100% [formula] Table 1 PARP-1 enzyme activity

The subject of the next series is DLD-1. Kind of series: DLD-1 cell activity assay (CellTiter-Glo, 7 days). Particulars: Homo sapiens, 168 h, 7 days incubation; for inhibition at 10 µM: read-out: Max inh.% 10 µM; for IC50: table does not say whether DLD-1 or DLD-1 BRCA2 KO. The series is classed as cell-based. The method, then:
DLD-1 (150 cells/well/100 µL) (ATCC, CCL-221) and DLD-1 BRCA2 KO (1500 cells/well/100 µL) (from ICE BIOSCIENCE INC.) were inoculated into a 96-well plate (Greiner, 655090) at appropriate cell densities and incubated overnight in a cell incubator at 37°C. The test compound was diluted in the corresponding cell culture medium, and the mixture was added to the well plate and incubated for 7 days. On the fourth day, the medium was replaced with a fresh medium containing the same concentrations of the compounds. The CellTiter-Glo reagent (CTG, Vazyme, DD1101-03) and the culture plate were taken out and returned to room temperature, and then 60 µL of CTG reagent was added to the cells. The plate was then shaken for 2 minutes to ensure complete cell lysis and placed at room temperature for 30 minutes. Luminescence signal values were read using a microplate reader (PHERAstar FSX). The wells containing only culture medium were used as negative controls, and the DMSO-containing wells were used as positive controls. The inhibitory activity percentage of the compounds was normalised using the readings from the negative and positive controls. Calculation formula of inhibition rate: [formula] Table 2 DLD-1 cell activity

The next series deals with A549 PARP2 KO. Description: PARP selectivity experiment (pADPr immunofluorescence after H2O2 stimulation), A549 PARP2 KO cells. The series is classed as cell-based. As to the method:
(§1) A549WT, A549 PARP1 KO and A549 PARP2 KO cell lines were inoculated into a 384-well plate at 2500/40 µL/well, and incubated overnight at 37°C with 5% CO2. On the next day, 40 nL of serially diluted compounds were added, and the cells were incubated at 37°C with 5% CO2 for 1 hour. The cells were stimulated by adding 5 µL of H2O2. A549 WT and A549 PARP2 KO were stimulated with a final concentration of 200 µM for 5 minutes, and A549 PARP1 KO was stimulated with a final concentration of 20 mM for 45 minutes. After the stimulation, the supernatant was discarded, and the cells were fixed with 40 µL of pre-cooled methanol in a refrigerator at 4°C for 20 minutes. The cells were washed twice with PBS, and blocked with 20 µL of blocking buffer for 1 hour. A primary antibody mixture (prepared by diluting the pADPr antibody (10H: sc-56198) 1 : 500 in blocking buffer) was added, and the plate was incubated overnight at 4°C. The cells were washed three times with PBST. A secondary antibody mixture (prepared by diluting the goat anti-mouse IgG (H+L) highly cross-adsorbed secondary antibody (Alexa Fluor™ 488) 1 : 500 in blocking buffer) was added, and the plate was incubated at room temperature for 1 hour. The cells were washed three times with PBST, and 20 µL of DAPI solution (1 : 5000 dilution) was added. The plate was incubated at room temperature for 10 minutes before scanning. […]

In a further series the test system is A549 PARP1 KO. Kind of series: PARP selectivity experiment (pADPr immunofluorescence after H2O2 stimulation), A549 PARP1 KO cells. The series is classed as cell-based. The settings on record: Homo sapiens, 0.75 h, H2O2 20 mM for 45 minutes. The method, then: as §1
The nature of series [1]: Pharmacokinetic test in rats. The series is classed as in vivo, SD rats. Particulars: for Kp at 24 h: brain, 24 h after administration, cell spans the i.v. and i.g. lines, read-out: Brain/Plasma Ratio (24 h); for Kp at 24 h / bioavailability: rat; for pharmacokinetic characteristics in rats: conclusion in words; for AUC(0-t) at 24 h / clearance / Vd: rat plasma; for Vd: read-out: Vdss; for bioavailability: plasma. As to the method:
4.1. Experimental animals: Male SD rats (about 220 g, 6-8 weeks old, 6 rats/compound) purchased from CHENGDU DOSSY EXPERIMENTAL ANIMALS CO., LTD.
4.2 Experimental design: on the day of the experiment, 12 SD rats were randomly grouped according to their body weights. The animals were fasted with water available for 12-14 h one day before the administration, and were fed 4 h after the administration. Table 4. Administration information
Before and after administration, 0.15 ml of blood was taken from the orbit under isoflurane anaesthesia and placed in an EDTAK2 centrifuge tube. The tube was centrifuged at 5000 rpm at 4°C for 10 min, and plasma was collected. The blood collection time points for the intravenous administration group and intragastric administration group were: 0, 5 min, 15 min, 30 min, 1 h, 2 h, 4 h, 6 h, 8 h and 24 h. The brain tissues were collected 24 hours after the administration, rinsed with cold physiological saline to remove the residual blood on the surface, drained out and then homogenised. Before analysis and detection, all samples were stored at -80°C. The samples were quantitatively analysed by LC-MS/MS. Table 5. Pharmacokinetic parameters of test compounds in plasma of rats

[2] abbreviates: PARP-1 enzyme activity, FP method, read-out: IC50.

Where two headings read alike, the source gives them in different places.

T1 sequence (P09874 whole entry): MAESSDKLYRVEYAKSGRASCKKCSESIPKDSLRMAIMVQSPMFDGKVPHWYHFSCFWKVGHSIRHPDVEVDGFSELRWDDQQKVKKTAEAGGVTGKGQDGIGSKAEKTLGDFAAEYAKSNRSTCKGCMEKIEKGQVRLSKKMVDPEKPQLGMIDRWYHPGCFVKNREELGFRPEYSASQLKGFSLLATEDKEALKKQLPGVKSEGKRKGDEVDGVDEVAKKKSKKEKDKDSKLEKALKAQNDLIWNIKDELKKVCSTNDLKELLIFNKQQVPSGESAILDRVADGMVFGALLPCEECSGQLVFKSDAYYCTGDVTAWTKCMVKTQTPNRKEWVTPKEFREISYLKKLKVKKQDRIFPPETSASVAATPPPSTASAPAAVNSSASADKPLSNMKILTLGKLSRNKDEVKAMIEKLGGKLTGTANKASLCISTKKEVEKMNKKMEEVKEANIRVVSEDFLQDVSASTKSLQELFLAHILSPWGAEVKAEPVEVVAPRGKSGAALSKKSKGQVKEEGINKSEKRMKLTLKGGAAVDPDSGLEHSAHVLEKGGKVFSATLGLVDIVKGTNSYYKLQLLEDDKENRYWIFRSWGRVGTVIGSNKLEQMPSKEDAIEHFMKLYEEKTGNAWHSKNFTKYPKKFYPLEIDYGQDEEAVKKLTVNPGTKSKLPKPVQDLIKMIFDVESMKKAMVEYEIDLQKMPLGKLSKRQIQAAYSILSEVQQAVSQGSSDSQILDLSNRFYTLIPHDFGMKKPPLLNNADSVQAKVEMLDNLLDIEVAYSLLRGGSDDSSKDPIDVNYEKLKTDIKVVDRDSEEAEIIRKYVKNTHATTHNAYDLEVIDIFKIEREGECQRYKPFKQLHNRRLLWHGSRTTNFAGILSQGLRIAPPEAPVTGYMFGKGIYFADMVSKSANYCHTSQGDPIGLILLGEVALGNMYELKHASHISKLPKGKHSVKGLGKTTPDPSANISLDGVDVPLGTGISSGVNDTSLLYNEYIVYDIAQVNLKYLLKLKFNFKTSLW

The IC50 is the point on the concentration scale where inhibition reaches its midpoint. Turning to `CCc1nc2ccc(CN3CCN(c4ccc(C(=O)Nc5cn(C)nc5F)nc4F)CC3)c(F)c2[nH]c1=O` [Compound 1], on PARP-1, inhibition was half-maximal at 2.74 nM (IC50). Also, in the series with DLD-1, the inhibition at 10 µM turned out to be 94% and 3.64 nM corresponded to half-maximal inhibition (IC50).
Usually AUC(0-t) stands for exposure summed from dosing to a finite time, without extrapolation to infinity. Low readings indicate less exposure, high ones more exposure. The term clearance denotes the rate of elimination divided by the concentration. High values mean a high capacity for elimination, low ones a low capacity for elimination. For orientation: bioavailability means dose-corrected exposure relative to a reference, in per cent. In turn, `Cn1cc(NC(=O)c2ccc(N3CCN(Cc4ccc5nc(C(F)F)c(=O)[nH]c5c4F)CC3)c(F)n2)c(F)n1` [Compound 2] yielded an IC50 in the series on A549 PARP2 KO (Homo sapiens, 5 min, A549 PARP2 KO cells, H2O2 200 µM for 5 minutes) of 0.63 nM. Also, in the series on A549 PARP2 KO (conclusion in words, from A549 PARP2 KO versus A549 PARP1 KO), the “selectivity for PARP1” value is given as “good selectivity for PARP1”. In the series on A549 PARP1 KO, this compound came in with a half-inhibitory concentration (IC50) above 5000 nM. For the same compound, the IC50 on PARP-1 came to 10.8 nM. In series [1] (iv), the Kp at 24 h was 1.03. For the same compound, in series [1], the “pharmacokinetic characteristics in rats” value is on record as “good pharmacokinetic characteristics”. In series [1] (iv, i.v. (2.5 mg/kg)), the AUC(0-t) at 24 h was 18700 ± 972 ng·h/mL, the clearance stood at 2.22 ± 0.11 mL/min/kg and the Vd was found to be 0.348 ± 0.027 L/kg. In series [1] (po, i.g. (10 mg/kg)), the bioavailability was determined as 66.8 ± 15% and the AUC(0-t) at 24 h was 50000 ± 11500 ng·h/mL. Further, in the series on DLD-1, the inhibition at 10 µM is 93.1% and half-maximal inhibition (IC50) was put at 4.67 nM.
Consider `Cn1ncc(NC(=O)c2ccc(N3CCN(Cc4ccc5nc(C(F)F)c(=O)[nH]c5c4F)CC3)c(F)n2)c1F` [Compound 3], for which it took 10.5 nM to reach half-maximal inhibition on PARP-1 (IC50). In the series on DLD-1, the inhibition at 10 µM stood at 91.6% and half-maximal inhibition (IC50) required 4.67 nM.
For `CCc1nc2ccc(CN3CCN(c4ccc(C(=O)Nc5cnn(C)c5F)nc4F)CC3)c(F)c2[nH]c1=O` [Compound 4] the same measures were 3.38 nM, 91.7% and 3.1 nM.
Turning to `Cn1ncc(C(=O)Nc2ccc(N3CCN(Cc4ccc5nc(C(F)F)c(=O)[nH]c5c4F)CC3)c(F)n2)c1F` [Compound 5], the IC50 at PARP-1 (setting [2]) came to 17.1 nM.
As for `CCc1nc2ccc(CN3CCN(c4ccc(NC(=O)c5cn(C)nc5F)nc4F)CC3)c(F)c2[nH]c1=O` [Compound 6], on PARP-1 (setting [2]), the IC50 worked out at 10.5 nM.
Still for that read-out and setting: to `C=C1CC(NC(=O)c2ccc(N3CCN(Cc4ccc5nc(C(F)F)c(=O)[nH]c5c4F)CC3)c(F)n2)C1` [Compound 7] belongs 12.5 nM.
At PARP-1, `C=C1CC(NC(=O)c2ccc(O[C@H]3CN(Cc4ccc5nc(CC)c(=O)[nH]c5c4F)[C@@H]3C)c(F)n2)C1` [Compound 8] showed an IC50 of 5.42 nM. Further, the Kp at 24 h in series [1] (iv) was 0.242. Further, the “pharmacokinetic characteristics in rats” value in series [1] is “good pharmacokinetic characteristics”. Moreover, in series [1] (iv, i.v. (2.5 mg/kg)), the AUC(0-t) at 24 h came out at 5720 ± 298 ng·h/mL, the clearance is 4.36 ± 0.74 mL/min/kg and the Vd came out at 0.855 ± 0.16 L/kg. Also, in series [1] (po, i.g. (10 mg/kg)), the bioavailability stood at 81.9 ± 22% and the AUC(0-t) at 24 h is 31800 ± 8480 ng·h/mL. For the same compound, in the series on DLD-1, the inhibition at 10 µM came out at 86.7% and inhibition was half-maximal at 16.8 nM (IC50).
For the compound `C=C1CC(NC(=O)c2ccc(N3CCN(Cc4ccc5nc(C)c(=O)[nH]c5c4F)CC3)c(F)n2)C1` [Compound 9], at PARP-1, inhibition was half-maximal at 3.25 nM (IC50). Also, in the series on DLD-1, the inhibition at 10 µM was 81.8% and the IC50 came out at 7.99 nM.
The corresponding values for `C=C1CC(NC(=O)c2ccc(N3CCN(Cc4ccc5nc(CC)c(=O)[nH]c5c4F)CC3)c(F)n2)C1` [Compound 10] are 4.55 nM, 87.6% and 6.96 nM.
`CCc1nc2ccc(CN3C[C@H](Oc4ccc(C(=O)NC5CC(=C(F)F)C5)nc4F)[C@H]3C)c(F)c2[nH]c1=O` (stereo partly drawn) [Compound 11]: the IC50 at PARP-1 (setting [2]) was 5.63 nM.
On the same count and under the same terms, to `Cc1nc2ccc(CN3CCN(c4ccc(C(=O)NC5CC(=C(F)F)C5)nc4F)CC3)c(F)c2[nH]c1=O` (stereo not drawn) [Compound 12] belongs 3.14 nM; to `CCc1nc2ccc(CN3CCN(c4ccc(C(=O)NC5CC(=C(F)F)C5)nc4F)CC3)c(F)c2[nH]c1=O` (stereo not drawn) [Compound 13], 6.39 nM.
As for `C=C1CC(NC(=O)c2ccc(O[C@H]3CN(Cc4ccc5nc(C)c(=O)[nH]c5c4F)[C@@H]3C)c(F)n2)C1` [Compound 18], at PARP-1 (setting [2]), the IC50 was determined as 7.94 nM.

Values taken from patent publication EP4729514A1, “BICYCLIC DERIVATIVE PARP INHIBITOR AND USE THEREOF” (Haisco Pharmaceutical Group Co., Ltd., priority 2023, dated 2024).
